EP2039683B1, “Vasculostatic agents and methods of use thereof” (Targegen, Inc., priority 2002, dated 2004)
Counter-ions that a name gives are not always drawn.

Legend:
[1] = system: VEGF-induced edema; test: Miles assay, VEGF as agonist; format: in vivo, Sprague-Dawley rats; settings: VEGF 200 ng/injection site, vehicle 12
Procedure: A rodent model of vascular edema, the Miles assay, was used to screen compounds for their ability to inhibit VEGF-induced edema. […] Sprague-Dawley rats were first injected IV with vehicle alone or test agent, followed by IV injection of Evans blue dye, followed by intradermal injections of saline and VEGF (200 ng/injection site) along both shaved flanks. […] The ability of test agent to influence vascular edema was tested as above, except that the ability to block edema was tested using either VEGF or histamine as the agonist (200 ng and 10 µg/injection site, respectively).

[2] = Cerebral stroke model, permanent middle cerebral artery occlusion; format: in vivo, mice; settings: 1 mg/kg BW IV 60 min after ligation; for % Infarct reduction: versus vehicle of the same study
Procedure: Cerebral strokes were created in mice by permanent ligation of the middle cerebral artery using a cauterizing tool, followed 60 min later by IV injection of either vehicle alone (50% PEG400 in water) or test agents (at 1 mg/kg BW). Twenty four hours later, brains were sectioned and stained using triphenyltetrazolium chloride to delineate viable from infarcted tissue.

[3] = Acute myocardial infarct model, 60 min LAD occlusion followed by reperfusion; format: in vivo, Sprague-Dawley rats; settings: for Infarct (% AAR, mean ± SEM): 24 hr post-treatment
Procedure: Myocardial infarcts were created in Sprague-Dawley rats (200-300 g body weight) by a 60 min occlusion of the LAD followed by LAD reperfusion. At 90 min post-reperfusion, either vehicle alone or test agents were injected IV. At 24 hr post-treatment, the ischemic zone (area at-risk, AAR) was delineated by re-ligation of the LAD followed by IV injection of alkali blue dye, after which hearts were sectioned along the short axis and stained using triphenyltetrazolium chloride to delineate viable from infarcted myocardium. Photographic images were then analyzed using morphometric software to calculate infarct area as a percent of the at-risk area.
In one group, 3-[2,4-diamino-6-(3-hydroxyphenyl)pteridin-7-yl] phenol dihydrochloride salt was administered at both 60 and 240 min post-occlusion.

[4] = system: CT-26 Colon carcinoma cells; test: CT-26 colon carcinoma lung metastases model, net tumor burden; format: in vivo, Balb/C mice
Procedure: FIGURE 3 (omitted) illustrates the effect of compounds administered in conjunction with doxorubicin in an in vivo model of metastatic colon cancer (CT-26 adenocarcinoma). Syngeneic CT-26 Colon carcinoma cells were injected I.V. in order to establish lung metastases in Balb/C mice. Beginning 10 days after cells were injected, test agents were given I.P. every 3 days for 3 cycles. Animals were sacrificed at day 20, lungs were collected, and weighed. Net tumor burden is the weight of tumor-bearing lungs minus the average weight of normal control lungs. N=5/group, p<0.02. In the experiment compound A is 6,7-bis(4-hydroxyphenyl)-pteridin-4-ylamine sulfate salt, and compound B is 6,7-diphenyl-pteridine-2,4-diamine.
FIGURE 4 (omitted) illustrates the effects of compounds of the present invention for co-drug therapy with Taxotere as described herein. Syngeneic CT-26 Colon carcinoma cells were used in order to establish lung metastases in Balb/C mice as described above. 6,7-bis(4-hydroxyphenyl)-pteridin-4-ylamine, sulfate salt (compound A) and 6,7-diphenyl-pteridine-2,4-diamine (compound B) were used.
FIGURE 6 (omitted) illustrates the effect of compounds administered in conjunction with docetaxel in the in vivo model of metastatic colon cancer (CT-26 adenocarcinoma) described for FIGURE 4. 2,3-Bis(3,4-dihydroxyphenyl)-pyrido[2,3-b]pyrazin-6-ylamine dihydrochloride salt (compound C) from FIGURE 4 is shown in FIGURE 6 as compound C. N=5/group, p<0.02.
(§1) Syngeneic CT-26 Colon carcinoma cells were injected I. V. in order to establish lung metastases in Balb/C mice. Beginning 10 days after cells were injected, indicated test agents were given I. P. every 3 days for 3 cycles. Animals were sacrificed at day 20, lungs were collected, and weighed. Net tumor burden is the weight of tumor-bearing lungs minus the average weight of normal control lungs. N=5/group, p < 0.02.
as §1, with “FIGURE 4 (omitted) illustrates the effects of the compounds of the present invention for co- drug therapy with docetaxel (Taxoteree-in this example formulated in 12. 5% Cremaphore: 12.5% Ethanol: 75% normal saline) as described herein. Syngeneic” for “Syngeneic”, “I.V.” for “I. V.”
FIGURE 6 (omitted) illustrates the effect of compounds administered in conjunction with docetaxel (Taxoreree-in this example formulated in 12.5% Cremaphore: 12.5% Ethanol:75% normal saline) in the in vivo model of metastatic colon cancer (CT-26 adenocarcinoma) described for FIGURE 4 (omitted). […] N=5/group,p < 0.02.
Similarly, 2,3-bis (4-hydroxyphenyl)-pyrido [2,3-b] pyrazin-6-ylamine dihydrochloride salt inhibited tumor burden alone or with co-drug therapy using docetaxel (Taxotere@~in this example formulated in 12.5% Cremaphore : 12.5% Ethanol:75% normal saline) as described herein. Syngeneic CT-26 Colon carcinoma cells were injected I.V. in order to establish lung metastases in Balb/C mice. Beginning 10 days after cells were injected, indicated test agents were given I.P. every 3 days for 3 cycles. Animals were sacrificed at day 20, lungs were collected, and weighed.

[5] = 0.1 mg/kg BW IV at 90 min post-reperfusion
[6] = 0.1 mg/kg BW, versus vehicle of the same study
[7] = 1.0 mg/kg BW IV at 90 min post-reperfusion
[8] = 1.0 mg/kg BW, versus vehicle of the same study
[9] = in combination with docetaxel, I.P. every 3 days for 3 cycles, day 20
[10] = stand alone agent, docetaxel co-drug studies (FIGURES 4 and 6), I.P. every 3 days for 3 cycles, day 20

In the case of `Nc1nc(N)c2nc(CNCc3ccc4ccccc4c3)cnc2n1` [6-{[(Naphthalen-2-ylmethyl)-amino]-methyl}-pteridine-2,4-diamine], the “Score (scale of 0-12)” value ([1]; 0.1 mg/kg IV) was 4.
For `Nc1ncnc2nc(-c3ccccn3)c(-c3ccccn3)nc12` [6,7-Di-pyridin-2-yl-pteridin-4-ylamine], the “Infarct area in mm^3 (mean ± SEM)” value ([2]; twenty four hours later) was 27.2 ± 2.63 mm^3 and the “% Infarct reduction” value [2] was “Not significant”.
For `Cc1ccc(-c2nn(C(C)(C)C)c3ncnc(N)c23)cc1` [PP1, reference compound], the “% Infarct reduction” value [2] was “Not significant”.
In the case of `O=C(CCc1ccc(O)cc1)Nc1ccccc1-c1cc2ccccc2[nH]1` [3-(4-Hydroxy-phenyl)-N-[2-(1H-indol-2-yl)-phenyl]-propionamide], the “Score (scale of 0-12)” value ([1]; 1.5 mg/kg IV) was 2.
With `Oc1cccc(-c2nc3nc(O)nc(O)c3nc2-c2cccc(O)c2)c1` [6,7-Bis-(3-hydroxy-phenyl)-pteridine-2,4-diol] the “Score (scale of 0-12)” value ([1]; 1.5 mg/kg IV) was 3.
With `O=C1c2ccccc2C(=O)N1c1ccccc1-c1cc2ccccc2[nH]1` [2-[2-(1H-indol-2-yl)-phenyl]-isoindole-1,3-dione] the “Score (scale of 0-12)” value ([1]; 1.5 mg/kg IV) was 3.
With `O=S(=O)(O)c1cc(Nc2ncnc3ncc(-c4ccccc4)nc23)ccc1O` [2-Hydroxy-5-(6-phenyl-pteridin-4-ylamino)-benzenesulfonic acid] the “Score (scale of 0-12)” value ([1]; 0.5 mg/kg IV) was 6.
For `Cl.Nc1ncnc2nc(-c3cccc(O)c3)c(-c3cccc(O)c3)nc12` [6,7-Bis(3-hydroxyphenyl)-pteridine-4-ylamine hydrochloride salt], the “Infarct (% AAR, mean ± SEM)” value [3, 5] was 39.1 ± 4.2 % AAR, the “% Infarct reduction” value [3, 6] was 37% and the “Infarct (% AAR, mean ± SEM)” value [3, 7] was 39.1 ± 7.5 % AAR. The “% Infarct reduction” value [3, 8] was 37%.
For `Cl.Nc1cncc2nc(-c3ccc(O)c(O)c3)c(-c3ccc(O)c(O)c3)nc12` [2,3-(3,4-Dihydroxyphenyl)-pyrido[3,4-b]pyrazin-8-ylamine], the “Score (scale of 0-12)” value ([1]; 0.01 mg/kg IV) was 6.
For `Oc1nc(O)c2nc(-c3ccccc3)c(-c3ccc(Oc4ccc(-c5nc6c(O)nc(O)nc6nc5-c5ccccc5)cc4)cc3)nc2n1`, the “Score (scale of 0-12)” value ([1]; 1.5 mg/kg IV) was 3.
In the case of `Cl.Cl.Nc1nc(N)c2nc(-c3cccc(O)c3)c(-c3cccc(O)c3)nc2n1` [3-[2,4-diamino-6-(3-hydroxyphenyl)pteridin-7-yl] phenol dihydrochloride salt], the “Score (scale of 0-12)” value ([1]; 0.01 mg/kg IV) was 3, the “Score (scale of 0-12)” value ([1]; 0.1 mg/kg IV) was 4 and the “Score (scale of 0-12)” value ([1]; 1 mg/kg IV) was 4. The “Infarct (% AAR, mean ± SEM)” value [3, 5] was 37.7 ± 5.8 % AAR, the “% Infarct reduction” value [3, 6] was 30% and the “Infarct (% AAR, mean ± SEM)” value [3, 7] was 46.4 ± 2.6 % AAR. The “% Infarct reduction” value [3, 8] was “Not significant”.
In the case of `O=C(Cc1ccc(O)c(O)c1)Nc1ccccc1-c1cc2ccccc2[nH]1` [2-(3,4-Dihydroxy-phenyl)-N-[2-(1H-indol-2-yl)-phenyl]-acetamide], the “Score (scale of 0-12)” value ([1]; 0.5 mg/kg IV) was 7.
With `Nc1nc(N)c2nc(-c3ccc(O)c(O)c3)c(-c3ccc(O)c(O)c3)nc2n1` [6,7-bis(3,4-dihydroxyphenyl)-pteridine-2,4,-diamine, hydrochloride salt] the “Infarct (% AAR, mean ± SEM)” value ([3]; 1.5 mg/kg BW IV at 90 min post-reperfusion) was 36.3 ±6.3 % AAR and the “% Infarct reduction” value ([3]; 1.5 mg/kg BW, versus vehicle of the same study) was 33%.
With `O=C(Nc1ccccc1C1Cc2ccccc2N1)c1ccccc1O` (stereo not drawn) [N-[2-(2,3-Dihydro-1H-indol-2-yl)-phenyl]-2-hydroxy-benzamide] the “Score (scale of 0-12)” value ([1]; 0.5 mg/kg IV) was 5.
For `Cl.Oc1ccc(Nc2ncnc3ncc(-c4ccccc4)nc23)c2cccnc12` [5-(6-Phenyl-pteridin-4-ylamino)-quinolin-8-ol hydrochloride salt], the “Score (scale of 0-12)” value ([1]; 0.5 mg/kg IV) was 5.
For `Cl.Cl.Nc1ccc2nc(-c3ccc(O)cc3)c(-c3ccc(O)cc3)nc2n1` [2,3-bis(4-hydroxyphenyl)-pyrido[2,3-b]pyrazin-6-ylamine dihydrochloride salt], the “reduction of tumor burden” value [4, 9] was “greater than 78%” and the “reduction of tumor burden” value [4, 10] was 63%.
In the case of `Nc1nc(N)c2nc(-c3ccc(O)cc3)cnc2n1` [4-(2,4-Diamno-pteridin-6-yl)-phenol (sulfate salt)], the “Score (scale of 0-12)” value ([1]; 5 mg/kg IV, lower score = greater anti-edema activity) was 2.
With `Cl.Cl.Nc1ccc2nc(-c3ccc(O)c(O)c3)c(-c3ccc(O)c(O)c3)nc2n1` [compound C, 2,3-Bis(3,4-dihydroxyphenyl)-pyrido[2,3-b]pyrazin-6-ylamine dihydrochloride salt] the “reduction of tumor burden” value [4, 9] was “greater than 85%” and the “reduction of tumor burden” value [4, 10] was 65%.
With `Br.Br.Nc1nc(N)c2nc(-c3cccc(O)c3)c(-c3cccc(O)c3)nc2n1` [3-[2,4-Diamino-6-(3-hydroxyphenyl)pteridin-7-yl]phenol dibromide salt] the “Infarct (% AAR, mean ± SEM)” value ([3]; 0.5 mg/kg BW IV at 90 min post-reperfusion, Study 5) was 31.6 ± 6.2 % AAR and the “% Infarct reduction” value ([3]; 0.5 mg/kg BW, versus vehicle, Study 5) was 42%.
In the case of `Cl.Nc1ncnc2nc(-c3ccc(O)c(O)c3)c(-c3ccc(O)c(O)c3)nc12` [4-[4-amino-6-(3,4-dihydroxyphenyl)pteridin-7-yl]benzene-1,2-diol chloride salt], the “Infarct (% AAR, mean ± SEM)” value [3, 5] was 37.1 ± 2.6 % AAR, the “% Infarct reduction” value [3, 6] was 40% and the “Infarct (% AAR, mean ± SEM)” value [3, 7] was 40.1 ± 2.0 % AAR. For the same compound, the “% Infarct reduction” value [3, 8] was 35%.
With `O=C(Cc1ccc(O)cc1)Nc1ccccc1-c1cc2ccccc2[nH]1` [2-(4-Hydroxy-phenyl)-N-[2-(1H-indol-2-yl)-phenyl]-acetamide] the “Score (scale of 0-12)” value ([1]; 1.5 mg/kg IV) was 2.
In the case of `Nc1nc(N)c2nc(CNCc3ccccn3)cnc2n1` [6-{[(Pyridin-2-ylmethyl)-amino]-methyl}-pteridine-2,4-diamine], the “Score (scale of 0-12)” value ([1]; 0.1 mg/kg IV) was 4.
With `O=C(Nc1ccccc1-c1cc2ccccc2[nH]1)c1ccc(O)c(O)c1` [3,4-Dihydroxy-N-[2-(1H-indol-2-yl)-phenyl]-benzamide] the “Score (scale of 0-12)” value ([1]; 0.1 mg/kg IV) was 6.
With `Nc1nc(N)c2nc(-c3ccccc3)c(-c3ccccc3)nc2n1` [compound B, 6,7-diphenyl-pteridine-2,4-diamine] the “reduction of tumor burden” value ([4]; in combination with doxorubicin as printed, FIGURE 4 experiment (docetaxel study)) was “greater than 70%”, the “reduction of tumor burden” value ([4]; in combination with doxorubicin, FIGURE 3 experiment, I.P. every 3 days for 3 cycles, day 20) was “greater than 65%” and the “tumor burden in lungs (photo of representative lung samples)” value ([4]; plus doxorubicin, compared with vehicle (control) lungs, FIGURE 5) was “dramatic reduction in tumor burden”. The “reduction of tumor burden” value ([4]; stand alone agent, FIGURE 3 experiment (doxorubicin study), I.P. every 3 days for 3 cycles, day 20) was 35% and the “reduction of tumor burden” value [4, 10] was 20%.
